One block for each compound: values may come before it. Calls of active or inactive are those of the source. No cut-off for these calls is given here.
Tests used:
RAW264.7 [1] = assay: Anti-inflammatory activity against LPS-induced mouse RAW264.7 cells assessed as inhibition of IL-1beta mRNA level at 10 uM preincubated with compound for 1 hr followed by LPS-induction and measured after 4 to 24 hrs by RT-qPCR analysis; type: functional; details: time 5-25 hrs
RAW264.7 [2] = assay: Anti-inflammatory activity against LPS-induced mouse RAW264.7 cells assessed as inhibition of IL-6 mRNA level at 10 uM preincubated with compound for 1 hr followed by LPS-induction and measured after 4 to 24 hrs by RT-qPCR analysis; type: functional; details: time 5-25 hrs
RAW264.7 [3] = assay: Cytotoxicity against mouse RAW264.7 cells at 10 uM by CCK-8 assay; type: functional, cell-based
RAW264.7 [4] = assay: Anti-inflammatory activity against LPS-induced mouse RAW264.7 cells assessed as increase in NRF2 nuclear translocation by laser confocal scanning microscopic analysis; type: functional, cell-based
RAW264.7 [5] = assay: Anti-inflammatory activity against LPS-induced mouse RAW264.7 cells assessed as inhibition of TNF-alpha mRNA level at 2 uM preincubated with compound for 1 hr followed by LPS-induction and measured after 4 to 24 hrs by RT-qPCR analysis; type: functional, cell-based; details: time 5-25 hrs
RAW264.7 [6] = assay: Anti-inflammatory activity against LPS-induced mouse RAW264.7 cells assessed as inhibition of IL-1beta mRNA level at 2 uM preincubated with compound for 1 hr followed by LPS-induction and measured after 4 to 24 hrs by RT-qPCR analysis; type: functional, cell-based; details: time 5-25 hrs
RAW264.7 [7] = assay: Activation of Nrf2/HO-1 signalling pathway in LPS-induced mouse RAW264.7 cells assessed as induction of Nrf2 nuclear translocation at 2 uM; type: cell-based; details: filed as activator
RAW264.7 [8] = assay: Activation of Nrf2/HO-1 signalling pathway in LPS-induced mouse RAW264.7 cells assessed as induction of Nrf2 nuclear translocation at 20 uM in presence of KI696; type: cell-based; details: filed as activator
RAW264.7 [9] = assay: Activation of Nrf2/HO-1 signalling pathway in LPS-induced mouse RAW264.7 cells assessed as induction of Nrf2 nuclear translocation at 20 uM; type: cell-based; details: filed as activator
Mus musculus [10] = assay: Anti-inflammatory activity against PM2.5-induced lung injury C57BL/6 mouse model assessed as lung particle aggregation at 15 to 60 mg/kg, po administered for 7 days by H and E staining based analysis; type: functional, organism-based; details: dose 15-60 mg/kg, time 7.0 day
Mus musculus [11] = assay: Anti-inflammatory activity against PM2.5-induced lung injury C57BL/6 mouse model assessed as reduction in number of cells in BALF at 15 to 60 mg/kg, po administered for 7 days; type: functional, organism-based; details: dose 15-60 mg/kg, time 7.0 day
Mus musculus [12] = assay: Anti-inflammatory activity against PM2.5-induced lung injury C57BL/6 mouse model assessed as reduction in WBC cells in peripheral blood at 15 to 60 mg/kg, po administered for 7 days; type: functional, organism-based; details: dose 15-60 mg/kg, time 7.0 day
RAW264.7 [13] = assay: Upregulation of Nrf2 mRNA level in LPS-induced mouse RAW264.7 cells at 10 to 50 uM; type: functional, cell-based; details: dose 10-50 µM
RAW264.7 [14] = assay: Anti-inflammatory activity against LPS-induced mouse RAW264.7 cells assessed as inhibition of IL-6 mRNA level preincubated with compound for 1 hr followed by LPS-induction and measured after 4 to 24 hrs by RT-qPCR analysis; type: functional, cell-based; details: dose 10-50 µM, time 5-25 hrs
[15] = Toxicity in C57BL/6 mouse assessed as reduction in body weight at 15 to 60 mg/kg, po administered for 7 days; type: organism-based; details: in vivo, 168 h, dose 15-60 mg/kg, time 7 day
RAW264.7 [16] = assay: Anti-inflammatory activity against LPS-induced mouse RAW264.7 cells assessed as inhibition of TNF-alpha mRNA level preincubated with compound for 1 hr followed by LPS-induction and measured after 4 to 24 hrs by RT-qPCR analysis; type: functional, cell-based; details: dose 10-50 µM, time 5-25 hrs
Mus musculus [17] = assay: Anti-inflammatory activity against PM2.5-induced lung injury C57BL/6 mouse model assessed as decrease in iNOS expression in lung at 15 to 60 mg/kg, po administered for 7 days by IHC analysis; type: functional, organism-based; details: dose 15-60 mg/kg, time 7.0 day
Mus musculus [18] = assay: Anti-inflammatory activity against PM2.5-induced lung injury C57BL/6 mouse model assessed as inhibition of mucin expression in lung at 15 to 60 mg/kg, po administered for 7 days by AB-PAS staining based analysis; type: functional, organism-based; details: dose 15-60 mg/kg, time 7.0 day
NCI-H292 = assay: Anti-inflammatory activity against EGF-induced human NCI-H292 cells assessed as decrease in MUC5AC mRNA expression at 20 to 50 uM by RT-qPCR analysis; type: functional, cell-based; details: dose 20-50 µM
Mus musculus [19] = assay: Anti-inflammatory activity against PM2.5-induced lung injury C57BL/6 mouse model assessed as infiltration of inflammatory cells at 15 to 60 mg/kg, po administered for 7 days by H and E staining based analysis; type: functional, organism-based; details: dose 15-60 mg/kg, time 7.0 day
Mus musculus [20] = assay: Anti-inflammatory activity against PM2.5-induced lung injury C57BL/6 mouse model assessed as decrease in collagen formation in lung at 15 to 60 mg/kg, po administered for 7 days by Masson staining based analysis; type: functional, organism-based; details: dose 15-60 mg/kg, time 7.0 day
RAW264.7 [21] = assay: Anti-inflammatory activity against LPS-induced mouse RAW264.7 cells assessed as inhibition of IL-1beta mRNA level preincubated with compound for 1 hr followed by LPS-induction and measured after 4 to 24 hrs by RT-qPCR analysis; type: functional, cell-based; details: dose 10-50 µM, time 5-25 hrs
Mus musculus [22] = assay: Anti-inflammatory activity against PM2.5-induced lung injury C57BL/6 mouse model assessed as pulmonary alveoli collapse at 15 to 60 mg/kg, po administered for 7 days by H and E staining based analysis; type: functional, organism-based; details: dose 15-60 mg/kg, time 7.0 day
RAW264.7 [23] = assay: Upregulation of HO-1 mRNA level in LPS-induced mouse RAW264.7 cells at 10 to 50 uM; type: functional, cell-based; details: dose 10-50 µM
RAW264.7 [24] = assay: Activation of Nrf2-Keap1-HO-1 signaling pathway in mouse RAW264.7 cells assessed as upregulation of P62 expression at 10 to 50 uM by Western blot analysis; type: cell-based; details: filed as activator, dose 10-50 µM
RAW264.7 [25] = assay: Anti-inflammatory activity against LPS-induced mouse RAW264.7 cells assessed as inhibition of TNF-alpha mRNA level at 20 uM preincubated with compound for 1 hr followed by LPS-induction and measured after 4 to 24 hrs by RT-qPCR analysis; type: functional, cell-based; details: time 5-25 hrs
RAW264.7 [26] = assay: Anti-inflammatory activity against LPS-induced mouse RAW264.7 cells assessed as inhibition of IL-6 level incubated for 24 hrs by ELISA analysis; type: functional, cell-based; details: RAW264.7, 24 h
[27] = Toxicity in C57BL/6 mouse assessed as pathological changes in kidney at 15 to 60 mg/kg, po administered for 7 days by H and E staining based analysis; type: organism-based; details: in vivo, 168 h, dose 15-60 mg/kg, time 7 day
Mus musculus [28] = assay: Anti-inflammatory activity against PM2.5-induced lung injury C57BL/6 mouse model assessed as increase in Arg-1 level in lung at 15 to 60 mg/kg, po administered for 7 days by IHC analysis; type: functional, organism-based; details: dose 15-60 mg/kg, time 7.0 day
RAW264.7 [29] = assay: Upregulation of Keap1 mRNA level in LPS-induced mouse RAW264.7 cells at 10 to 50 uM; type: functional, cell-based; details: dose 10-50 µM
[30] = Toxicity in C57BL/6 mouse assessed as liver damage at 15 to 60 mg/kg, po administered for 7 days by H and E staining based analysis; type: organism-based; details: in vivo, 168 h, dose 15-60 mg/kg, time 7 day
Mus musculus [31] = assay: Anti-inflammatory activity against PM2.5-induced lung injury C57BL/6 mouse model assessed as decrease in LY6G expression in lung at 15 to 60 mg/kg, po administered for 7 days by IHC analysis; type: functional, organism-based; details: dose 15-60 mg/kg, time 7.0 day
RAW264.7 [32] = assay: Anti-inflammatory activity against LPS-induced mouse RAW264.7 cells assessed as inhibition of IL-1beta mRNA level at 20 uM preincubated with compound for 1 hr followed by LPS-induction and measured after 4 to 24 hrs by RT-qPCR analysis; type: functional, cell-based; details: time 5-25 hrs
RAW264.7 [33] = assay: Activation of Nrf2-Keap1-HO-1 signaling pathway in mouse RAW264.7 cells assessed as upregulation of HO-1 expression at 10 to 50 uM by Western blot analysis; type: cell-based; details: filed as activator, dose 10-50 µM

Structure (SMILES): CN(/C=C\c1ccccc1)C(=O)c1cc(-c2ccccc2C(F)(F)F)nn1-c1ccc(C(F)(F)F)cc1
inhibition at 10 µM (RAW264.7 [1]): 96%

Structure (SMILES): Cc1ccc(-c2cc(C(=O)N(C)/C=C\c3ccccc3)n(-c3ccc(C(F)(F)F)cc3)n2)cc1
inhibition at 10 µM (RAW264.7 [1]): 91.1%

Structure (SMILES): CN(/C=C\c1ccccc1)C(=O)/C=C/c1ccccc1 [LANSIUMAMIDE B]
inhibition at 10 µM (RAW264.7 [2]): 73.4%
inhibition at 10 µM (RAW264.7 [1]): 18%

Structure (SMILES): CN(/C=C\c1ccccc1)C(=O)c1cc(-c2ccccc2Cl)nn1-c1ccc(C(F)(F)F)cc1
inhibition at 10 µM (RAW264.7 [2]): 53.9%
inhibition at 10 µM (RAW264.7 [1]): 97.1%

Structure (SMILES): Cc1ccc(-n2nc(C(=O)N(C)/C=C\c3ccccc3)cc2C(C)(C)C)cc1
Activity (RAW264.7 [3]): Active

Structure (SMILES): COc1cc([C@@H](CC(=O)O)c2ccc(C)c(CN3C[C@@H](C)Oc4ccccc4S3(=O)=O)c2)cc2nnn(C)c12
Activity (RAW264.7 [4]): Active
Activity (RAW264.7 [5]): Active
Activity (RAW264.7 [6]): Active
Activity (RAW264.7 [7]): Active

Structure (SMILES): CN(/C=C\c1ccccc1)C(=O)c1cc(-c2ccccc2)nn1-c1ccc(C(F)(F)F)cc1
inhibition at 10 µM (RAW264.7 [1]): 94.5%

Structure (SMILES): COc1ccc(-n2nc(C(=O)N(C)/C=C\c3ccccc3)cc2C(C)(C)C)cc1
inhibition at 10 µM (RAW264.7 [1]): 94.7%

Structure (SMILES): Cc1cccc(-c2cc(C(=O)N(C)/C=C\c3ccccc3)n(-c3ccc(C(F)(F)F)cc3)n2)c1
inhibition at 10 µM (RAW264.7 [2]): 49.5%
inhibition at 10 µM (RAW264.7 [1]): 9.84%

Structure (SMILES): CN(/C=C\c1ccccc1)C(=O)c1cc(-c2ccccc2F)nn1-c1ccc(C(F)(F)F)cc1
inhibition at 10 µM (RAW264.7 [2]): 50.2%
inhibition at 10 µM (RAW264.7 [1]): 96.5%

Structure (SMILES): CN(/C=C\c1ccccc1)C(=O)c1cc(-c2ccc(C(F)(F)F)cc2)nn1-c1ccc(C(F)(F)F)cc1
inhibition at 10 µM (RAW264.7 [1]): 93.5%

Structure (SMILES): Cc1ccccc1-c1cc(C(=O)N(C)/C=C\c2ccccc2)n(-c2ccc(C(F)(F)F)cc2)n1
inhibition at 10 µM (RAW264.7 [1]): 95.8%

IC50 (RAW264.7 [26]): 4.82 µM
Structure (SMILES): CN(/C=C\c1ccccc1)C(=O)c1cc(C(C)(C)C)n(-c2ccc(F)cc2)n1
Activity (RAW264.7 [8]): Active
Activity (RAW264.7 [9]): Active
Activity (RAW264.7 [4]): Active
Activity (Mus musculus [10]): Active
Activity (Mus musculus [11]): Active
Activity (Mus musculus [12]): Active
Activity (RAW264.7 [13]): Active
Activity (RAW264.7 [14]): Dose-dependent-effect
Activity [15]: Non-toxic
Activity (RAW264.7 [16]): Dose-dependent-effect
Activity (Mus musculus [17]): Active
inhibition at 10 µM (RAW264.7 [2]): 60.3%
Activity (Mus musculus [18]): Active
Activity (NCI-H292): Active
Activity (Mus musculus [19]): Active
Activity (Mus musculus [20]): Active
inhibition at 10 µM (RAW264.7 [1]): 96%
Activity (RAW264.7 [21]): Dose-dependent-effect
Activity (Mus musculus [22]): Active
Activity (RAW264.7 [23]): Active
Activity (RAW264.7 [24]): Active
Activity (RAW264.7 [25]): Active
Activity [27]: Non-toxic
Activity (Mus musculus [28]): Active
Activity (RAW264.7 [29]): Active
Activity [30]: Non-toxic
Activity (Mus musculus [31]): Active
Activity (RAW264.7 [32]): Active
Activity (RAW264.7 [33]): Active
